Assays:
female Balb/c mice = assay: Imiquimod-induced psoriasis in Balb/c mice, PASI scoring; format: in vivo, mouse
Procedure: The study is performed on 40 female Balb/c mice, weighing roughly 18-20 g and randomized by weight into 5 groups (n=8) as function of the treatments, under controlled temperature (24±2° C.) and humidity (50±20%) conditions and with a 12-hour reversed light cycle (light from 20:00 to 08:00) (food and water ad libitum).
The compounds to be tested are as follows: • Excipial® neutral ointment (control) • PAT1657 (octyl-isochlorogenamide A) incorporated at 1.33% or 2.67% by mass in Excipial® ointment • Aldara® cream containing 5% imiquimod, an inducer of psoriasis • Dermoval® cream containing 0.05% clobetasol propionate and used for topical treatment of psoriasis (reference product)
The treatment groups are distributed as follows: • Group 1: no induction of psoriasis but cutaneous application of neutral ointment from day 1 to day 10 and treatment with Excipial® neutral ointment from day 7 to day 10 (negative control) (EP/EP); • Group 2: induction of psoriasis by cutaneous application of Aldara® cream containing imiquimod from day 1 to day 10 and treatment with Excipial® neutral ointment from day 7 to day 10 (positive control) (ALD/EP); • Group 3: induction of psoriasis by cutaneous application of Aldara® cream containing imiquimod from day 1 to day 10 and treatment with neutral ointment containing 1.33% compound PAT1657 from day 7 to day 10 (ALD/PAT1657-1.33%); • Group 4: induction of psoriasis by cutaneous application of Aldara® cream containing imiquimod from day 1 to day 10 and treatment with neutral ointment containing 2.67% compound PAT1657 from day 7 to day 10 (ALD/PAT1657-2.67%); • Group 5: induction of psoriasis by cutaneous application of Aldara® cream containing imiquimod from day 1 to day 10 and treatment with Dermoval® cream from day 7 to day 10 (ALD/Dermoval®). Induction and Maintenance of Psoriasis
To perform the induction of psoriasis, it was necessary to remove the hair from the backs of the animals by shaving and plucking to have direct access to the skin tissue. Psoriasis was induced in all mice in groups 2 to 5 by daily cutaneous application for 10 days, from day 1 to day 10, of roughly 70 mg of Aldara® cream. The cream was applied to the shaved backs of the mice with a silk brush. For the mice in group 1, daily cutaneous application of Excipial® neutral ointment was carried out under the same conditions: roughly 70 mg was applied for 10 days, from day 1 to day 10, in the morning using a silk brush.
The ointments containing compound PAT1657 at the two doses to be tested, Excipial® neutral ointment and Dermoval® cream, were administered by cutaneous applications for 4 days, from day 7 to day 10, on the backs of the mice in the psoriasis induction region. For each application, roughly 100 mg of ointment or cream was applied with a silk brush, at least 4 hours after application of Aldara® cream or Excipial® neutral ointment for induction or not of psoriasis.
The psoriasis area and severity index (PASI) was calculated daily throughout the experiment from day 1 to day 11, based on the following three parameters: • Presence of erythema, i.e. skin redness, in the psoriasis induction region, scored as follows: 0=no or no further erythema; 1=mild erythema; 2=moderate erythema; 3=severe erythema; 4=very severe erythema. • Degree of induration, i.e. skin hardening and thickening, in the psoriasis induction region, scored as follows: 0=no or no further induration; 1=mild induration; 2=moderate induration; 3=severe induration; 4=very severe induration. • Degree of desquamation, i.e. presence of plaques on the skin surface, in the psoriasis induction region, scored as follows: 0=no or no further desquamation; 1=mild desquamation; 2=moderate desquamation; 3=severe desquamation; 4=very severe desquamation.
The psoriasis area and severity index is the sum of the scores for these three parameters. […]

IL-8 = IL-8 production by NHEKs in the inflammatory state (PMA), ELISA; format: cell-based, human; settings: PMA 10 ng/ml 24 h, compounds 50 μM, dexamethasone 10 μM, relative to PMA induced control (100%)
Procedure: The study was carried out on Normal Human Epidermal Keratinocytes (NHEKs) (Lonza, CC-2507, origin: foreskin) in monolayer culture in Epilife medium (Invitrogen, M-EPI-500-A) containing the components of the Human Keratinocyte Growth Supplement (HKGS) mixture (Invitrogen, S-001-K) added separately, except hydrocortisone having anti-inflammatory properties.
For the quantification of IL-8 and PGE2, the inflammatory state of the NHEKs in culture was induced by treatment with PMA (phorbol myristate acetate/10 ng/ml/H2O) for 24 h. Induction of IL-6 was achieved by treatment with PMA (10 ng/ml/H2O) combined with calcium ionophore A23187 (2 μM/DMSO) in medium containing calcium at a concentration of 0.8 mM. […]
Quantification of the various inflammatory mediators was carried out with specific kits, based on a standard curve, according to the instructions provided by the kits' suppliers, R&D Systems and Cayman Chemical.
Before induction of the inflammatory state, the NHEKs were treated with the compounds and reference molecules for 2 h. The inflammatory state was then induced according to the conditions described in the methodology section, the culture supernatants were collected, and the various inflammatory mediators were quantified by the ELISA technique. […]

[1] = day 8, 1.33% in ointment, vs ALD/EP group, p=0.001
[2] = day 10, 1.33% in ointment, vs ALD/EP group, p=0.001
[3] = day 10, 2.67% in ointment, vs ALD/EP group, p=0.001
[4] = day 11, 1.33% in ointment, vs ALD/EP group, p=0.001
[5] = day 11, 2.67% in ointment, vs ALD/EP group, p=0.001

CCCCCCCCNC(=O)[C@]1(O)C[C@@H](OC(=O)/C=C/c2ccc(O)c(O)c2)[C@@H](O)[C@H](OC(=O)/C=C/c2ccc(O)c(O)c2)C1 [PAT1657, (2E,2′E)-((1R,2S,3R,5S)-2,5-dihydroxy-5-(octylcarbamoyl)cyclohexane-1,3-diyl) bis(3-(3,4-dihydroxyphenyl)acrylate)]
mean psoriasis area and severity index (PASI) (female Balb/c mice; [1]): significantly lower
mean score for degree of induration in the psoriasis induction region (female Balb/c mice; [1]): significantly lower
mean score for presence of erythema in the psoriasis induction region (female Balb/c mice; [1]): significantly lower
mean score for degree of desquamation in the psoriasis induction region (female Balb/c mice; day 8, 1.33% in ointment, vs ALD/EP group, p=0.007): significantly lower
mean psoriasis area and severity index (PASI) (female Balb/c mice; day 8, 2.67% in ointment, vs ALD/EP group, p=0.001): significantly lower
mean score for degree of induration in the psoriasis induction region (female Balb/c mice; day 8, 2.67% in ointment, vs ALD/EP group, p=0.004): significantly lower
mean score for degree of desquamation in the psoriasis induction region (female Balb/c mice; day 8, 2.67% in ointment, vs ALD/EP group, p=0.006): significantly lower
mean score for presence of erythema in the psoriasis induction region (female Balb/c mice; day 8, 2.67% in ointment, vs ALD/EP group, p=0.007): significantly lower
mean psoriasis area and severity index (PASI) (female Balb/c mice; day 9, day 10 and day 11, 1.33% in ointment, vs ALD/EP group, p=0.001): significantly lower
mean psoriasis area and severity index (PASI) (female Balb/c mice; day 9, day 10 and day 11, 2.67% in ointment, vs ALD/EP group, p=0.001): significantly lower
mean score for degree of induration in the psoriasis induction region (female Balb/c mice; day 9, 1.33% in ointment, vs ALD/Dermoval group, p=0.015): significantly higher
mean score for degree of induration in the psoriasis induction region (female Balb/c mice; day 9, 1.33% in ointment, vs ALD/EP group, p=0.001): significantly lower
mean score for presence of erythema in the psoriasis induction region (female Balb/c mice; day 9, 1.33% in ointment, vs ALD/EP group, p=0.002): significantly lower
mean score for degree of induration in the psoriasis induction region (female Balb/c mice; day 9, 2.67% in ointment, vs ALD/EP group, p=0.001): significantly lower
mean score for presence of erythema in the psoriasis induction region (female Balb/c mice; day 9, 2.67% in ointment, vs ALD/EP group, p=0.002): significantly lower
mean score for degree of desquamation in the psoriasis induction region (female Balb/c mice; day 9 and day 10, 1.33% in ointment, vs ALD/EP group, p=0.001): significantly lower
mean score for degree of desquamation in the psoriasis induction region (female Balb/c mice; day 9 and day 10, 2.67% in ointment, vs ALD/EP group, p=0.001): significantly lower
mean score for degree of induration in the psoriasis induction region (female Balb/c mice; day 10, 1.33% in ointment, vs ALD/Dermoval group, p=0.025): significantly higher
mean score for presence of erythema in the psoriasis induction region (female Balb/c mice; day 10, 1.33% in ointment, vs ALD/Dermoval group, p=0.037): significantly lower
mean score for degree of induration in the psoriasis induction region (female Balb/c mice; [2]): significantly lower
mean score for presence of erythema in the psoriasis induction region (female Balb/c mice; [2]): significantly lower
mean score for degree of induration in the psoriasis induction region (female Balb/c mice; day 10, 2.67% in ointment, vs ALD/Dermoval group, p=0.025): significantly higher
mean score for presence of erythema in the psoriasis induction region (female Balb/c mice; day 10, 2.67% in ointment, vs ALD/Dermoval group, p=0.079): tendency to be significantly lower
mean score for degree of induration in the psoriasis induction region (female Balb/c mice; [3]): significantly lower
mean score for presence of erythema in the psoriasis induction region (female Balb/c mice; [3]): significantly lower
mean score for degree of desquamation in the psoriasis induction region (female Balb/c mice; day 11, 1.33% in ointment, vs ALD/Dermoval group): significantly higher
mean score for presence of erythema in the psoriasis induction region (female Balb/c mice; day 11, 1.33% in ointment, vs ALD/Dermoval group, p=0.001): significantly lower
mean score for degree of induration in the psoriasis induction region (female Balb/c mice; day 11, 1.33% in ointment, vs ALD/Dermoval group, p=0.063): tendency to be significantly higher
mean score for degree of desquamation in the psoriasis induction region (female Balb/c mice; [4]): significantly lower
mean score for degree of induration in the psoriasis induction region (female Balb/c mice; [4]): significantly lower
mean score for presence of erythema in the psoriasis induction region (female Balb/c mice; [4]): significantly lower
mean score for presence of erythema in the psoriasis induction region (female Balb/c mice; day 11, 2.67% in ointment, vs ALD/Dermoval group, p=0.014): significantly lower
mean score for degree of desquamation in the psoriasis induction region (female Balb/c mice; day 11, 2.67% in ointment, vs ALD/Dermoval group, p=0.059): tended to be significantly higher
mean score for degree of desquamation in the psoriasis induction region (female Balb/c mice; [5]): significantly lower
mean score for degree of induration in the psoriasis induction region (female Balb/c mice; [5]): significantly lower
mean score for presence of erythema in the psoriasis induction region (female Balb/c mice; [5]): significantly lower
IL-8 production (IL-8): inhibit/reduce IL-8 production to the baseline level
